In patent publication US11352359B2, “PI3K protein kinase inhibitors” (Rhizen Pharmaceuticals SA, priority 2013, dated 2022):
pIC50: −log10 of the molar value.

Experiments:
Type in all cases: biochemical
PI3Kδ = PI3Kδ (Homo sapiens, UniProt O00329); experiment: Fluorescent determination of PI3Kinase enzyme activity (HTRF), PI3Kδ; conditions: for inhibition at 0.1 µM: 100 nM (underlined values: 300 nM)
Excerpt: (§1) Fluorescent Determination of PI3Kinase Enzyme Activity
(§2) Phosphoinositide 3 kinases (PI3K) belong to a class of Lipid kinases that play a critical role in the regulation of several key cellular processes. The PI3K are capable of phosphorylating the 3-hydroxy position of phosphoinositols thereby generating second messengers involved in downstream signalling events. The homogenous time resolved fluorescence (HTRF) assay allows detection of 3,4,5-triphosphate (PIP3) formed as a result of phosphorylation of phosphotidylinositol 4,5-biphosphate (PIP2) by PI3K isoforms such as α, […], γ or δ.
(§3) PI3K isoform activity for α, β, γ or δ is to be determined using a PI3K human HTRF™ Assay Kit (Millipore, Billerica, Mass.) with modifications. All incubations were carried out at room temperature. Briefly, 0.5 μl of 40× inhibitor (in 100% DMSO) or 100% DMSO were added to each well of a 384-well black plate (Greiner Bio-One, Monroe, N.C.) containing 14.5 μl 1× reaction buffer/PIP2 (10 mM MgCl2, 5 mM DTT, 1.38 μM PIP2) mix with or without enzyme and incubated for 10 min. After the initial incubation, 5 μl/well of 400 μM ATP was added and incubated for an additional 30 minutes. Reaction was terminated by adding 5 μl/well stop solution (Millipore, Billerica, Mass.). Five microliters of detection mix (Millipore, Billerica, Mass.) were then added to each well and was incubated for 6-18 h in the dark. HRTF ratio was measured on a microplate reader (BMG Labtech, Germany) at an excitation wavelength of 337 nm and emission wavelengths of 665 and 620 nm with an integration time of 400 μsec. Data was analyzed using Graphpad Prism (Graphpad software; San Diego Calif.) for IC50 determination).

PI3Kγ = PI3Kγ (Homo sapiens, UniProt P48736); experiment: Fluorescent determination of PI3Kinase enzyme activity (HTRF), PI3Kγ; conditions: for inhibition at 0.1 µM: 100 nM (underlined values: 300 nM)
Chain of PI3Kγ (P48736 whole entry): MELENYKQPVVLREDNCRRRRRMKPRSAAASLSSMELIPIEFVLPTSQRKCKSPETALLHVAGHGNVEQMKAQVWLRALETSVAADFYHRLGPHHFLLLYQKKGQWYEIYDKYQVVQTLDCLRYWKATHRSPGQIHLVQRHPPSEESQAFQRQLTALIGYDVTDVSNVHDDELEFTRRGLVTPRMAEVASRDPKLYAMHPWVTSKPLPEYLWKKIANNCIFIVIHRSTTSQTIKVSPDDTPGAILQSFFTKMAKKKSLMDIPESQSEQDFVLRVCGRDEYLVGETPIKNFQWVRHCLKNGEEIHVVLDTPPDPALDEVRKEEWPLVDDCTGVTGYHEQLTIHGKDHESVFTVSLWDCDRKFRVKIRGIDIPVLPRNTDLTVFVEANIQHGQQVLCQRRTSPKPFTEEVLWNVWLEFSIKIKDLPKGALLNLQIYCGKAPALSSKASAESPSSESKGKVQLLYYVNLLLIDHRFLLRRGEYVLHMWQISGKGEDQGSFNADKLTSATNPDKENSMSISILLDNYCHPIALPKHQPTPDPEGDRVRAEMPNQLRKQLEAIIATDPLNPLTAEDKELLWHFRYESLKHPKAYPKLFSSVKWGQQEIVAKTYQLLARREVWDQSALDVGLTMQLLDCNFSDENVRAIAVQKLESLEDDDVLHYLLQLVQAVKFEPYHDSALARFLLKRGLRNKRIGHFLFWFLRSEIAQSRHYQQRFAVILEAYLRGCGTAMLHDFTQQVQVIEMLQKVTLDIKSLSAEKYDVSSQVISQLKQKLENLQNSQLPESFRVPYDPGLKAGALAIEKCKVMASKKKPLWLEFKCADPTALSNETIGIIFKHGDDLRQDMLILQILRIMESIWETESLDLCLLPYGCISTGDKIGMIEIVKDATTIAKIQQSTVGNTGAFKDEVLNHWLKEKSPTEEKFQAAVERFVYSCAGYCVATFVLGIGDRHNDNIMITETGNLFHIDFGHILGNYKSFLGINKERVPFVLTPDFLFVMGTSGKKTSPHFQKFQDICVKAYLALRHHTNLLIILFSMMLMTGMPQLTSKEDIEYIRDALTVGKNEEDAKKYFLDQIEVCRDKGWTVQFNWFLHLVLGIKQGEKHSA
Excerpt: as §1, §2, §3

PI3Kα = PI3Kα (Homo sapiens, UniProt P42336); experiment: Fluorescent determination of PI3Kinase enzyme activity (HTRF), PI3Kα
Chain of PI3Kα (P42336 whole entry): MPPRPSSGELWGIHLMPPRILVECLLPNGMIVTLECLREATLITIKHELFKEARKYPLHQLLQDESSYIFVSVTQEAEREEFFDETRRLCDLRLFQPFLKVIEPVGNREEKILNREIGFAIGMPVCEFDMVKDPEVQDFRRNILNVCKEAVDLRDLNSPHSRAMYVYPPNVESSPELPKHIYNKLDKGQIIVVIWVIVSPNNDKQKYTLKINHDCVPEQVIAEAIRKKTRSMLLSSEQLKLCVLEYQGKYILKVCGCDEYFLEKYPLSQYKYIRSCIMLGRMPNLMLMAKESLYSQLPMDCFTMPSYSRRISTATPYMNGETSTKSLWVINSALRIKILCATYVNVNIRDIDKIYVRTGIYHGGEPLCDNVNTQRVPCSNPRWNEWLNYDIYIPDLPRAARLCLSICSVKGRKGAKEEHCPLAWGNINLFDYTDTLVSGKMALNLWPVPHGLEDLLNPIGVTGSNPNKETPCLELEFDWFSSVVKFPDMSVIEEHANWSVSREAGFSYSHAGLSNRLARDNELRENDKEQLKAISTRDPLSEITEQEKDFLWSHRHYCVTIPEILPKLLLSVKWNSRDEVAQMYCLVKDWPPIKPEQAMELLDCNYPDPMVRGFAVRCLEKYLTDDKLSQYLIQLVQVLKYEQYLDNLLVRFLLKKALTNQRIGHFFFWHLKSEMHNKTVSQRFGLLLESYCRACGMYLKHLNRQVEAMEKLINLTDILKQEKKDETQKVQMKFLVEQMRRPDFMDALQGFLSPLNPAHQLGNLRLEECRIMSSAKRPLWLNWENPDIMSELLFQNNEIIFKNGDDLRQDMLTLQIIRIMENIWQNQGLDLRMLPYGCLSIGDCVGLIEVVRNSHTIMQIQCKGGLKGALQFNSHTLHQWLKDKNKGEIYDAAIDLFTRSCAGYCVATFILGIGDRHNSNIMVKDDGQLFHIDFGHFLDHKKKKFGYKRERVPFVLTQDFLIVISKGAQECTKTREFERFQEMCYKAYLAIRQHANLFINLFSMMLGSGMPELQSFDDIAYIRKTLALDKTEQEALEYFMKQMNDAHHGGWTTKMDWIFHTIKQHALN
Chain of PI3Kα (P27986 whole entry partner): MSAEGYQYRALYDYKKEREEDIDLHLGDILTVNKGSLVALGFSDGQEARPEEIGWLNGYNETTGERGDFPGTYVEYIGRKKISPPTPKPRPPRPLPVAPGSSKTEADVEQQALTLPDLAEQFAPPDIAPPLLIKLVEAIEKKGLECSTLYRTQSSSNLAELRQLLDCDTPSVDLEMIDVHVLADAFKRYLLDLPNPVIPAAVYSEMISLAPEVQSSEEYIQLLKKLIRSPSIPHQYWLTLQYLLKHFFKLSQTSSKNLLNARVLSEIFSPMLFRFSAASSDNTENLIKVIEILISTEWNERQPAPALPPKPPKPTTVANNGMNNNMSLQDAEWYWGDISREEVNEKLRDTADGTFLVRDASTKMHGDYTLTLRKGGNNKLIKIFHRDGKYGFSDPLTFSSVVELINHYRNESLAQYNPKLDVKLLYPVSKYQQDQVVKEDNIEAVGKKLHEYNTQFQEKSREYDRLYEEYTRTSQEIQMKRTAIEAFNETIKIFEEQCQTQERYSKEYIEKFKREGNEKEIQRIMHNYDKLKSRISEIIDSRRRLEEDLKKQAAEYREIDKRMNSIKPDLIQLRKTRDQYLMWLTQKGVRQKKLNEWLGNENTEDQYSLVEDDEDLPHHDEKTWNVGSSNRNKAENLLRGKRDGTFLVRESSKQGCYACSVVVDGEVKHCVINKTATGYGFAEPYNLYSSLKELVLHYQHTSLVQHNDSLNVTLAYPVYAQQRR
Excerpt: as §1, §2, §3

PI3Kβ = PI3Kβ (Homo sapiens, UniProt P42338); experiment: Fluorescent determination of PI3Kinase enzyme activity (HTRF), PI3Kβ
Chain of PI3Kβ (P42338 whole entry): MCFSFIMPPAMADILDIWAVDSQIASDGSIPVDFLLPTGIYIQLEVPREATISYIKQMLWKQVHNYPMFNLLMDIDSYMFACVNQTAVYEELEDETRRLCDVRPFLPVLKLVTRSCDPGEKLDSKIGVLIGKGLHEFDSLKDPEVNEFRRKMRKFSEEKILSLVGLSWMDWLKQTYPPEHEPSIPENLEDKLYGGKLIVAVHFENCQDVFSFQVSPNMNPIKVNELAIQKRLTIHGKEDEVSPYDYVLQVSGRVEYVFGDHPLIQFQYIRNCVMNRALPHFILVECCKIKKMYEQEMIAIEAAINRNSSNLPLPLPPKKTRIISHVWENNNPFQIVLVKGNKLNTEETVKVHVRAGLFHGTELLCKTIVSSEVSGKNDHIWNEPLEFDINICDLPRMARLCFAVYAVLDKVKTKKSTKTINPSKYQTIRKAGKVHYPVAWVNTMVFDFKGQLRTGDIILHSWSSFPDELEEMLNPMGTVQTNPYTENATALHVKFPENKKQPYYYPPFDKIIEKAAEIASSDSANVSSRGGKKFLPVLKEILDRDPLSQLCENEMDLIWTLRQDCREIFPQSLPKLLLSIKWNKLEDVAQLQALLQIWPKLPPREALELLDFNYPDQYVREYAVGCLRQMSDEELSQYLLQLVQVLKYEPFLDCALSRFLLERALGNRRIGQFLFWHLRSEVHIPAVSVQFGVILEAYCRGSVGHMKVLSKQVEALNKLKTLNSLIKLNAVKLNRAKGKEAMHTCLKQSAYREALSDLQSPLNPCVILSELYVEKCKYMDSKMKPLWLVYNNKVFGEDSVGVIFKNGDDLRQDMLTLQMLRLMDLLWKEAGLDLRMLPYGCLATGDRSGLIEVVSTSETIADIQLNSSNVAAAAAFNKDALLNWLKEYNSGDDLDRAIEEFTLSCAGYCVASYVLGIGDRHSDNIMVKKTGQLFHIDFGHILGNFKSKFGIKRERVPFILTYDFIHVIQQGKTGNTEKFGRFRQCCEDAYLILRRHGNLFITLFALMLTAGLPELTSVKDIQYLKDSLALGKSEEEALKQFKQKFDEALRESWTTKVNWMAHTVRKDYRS
Chain of PI3Kβ (P27986 whole entry partner): as the sequence (P27986 whole entry partner) above
Excerpt: as §1, §2, §3

Chain of PI3Kδ (O00329 whole entry): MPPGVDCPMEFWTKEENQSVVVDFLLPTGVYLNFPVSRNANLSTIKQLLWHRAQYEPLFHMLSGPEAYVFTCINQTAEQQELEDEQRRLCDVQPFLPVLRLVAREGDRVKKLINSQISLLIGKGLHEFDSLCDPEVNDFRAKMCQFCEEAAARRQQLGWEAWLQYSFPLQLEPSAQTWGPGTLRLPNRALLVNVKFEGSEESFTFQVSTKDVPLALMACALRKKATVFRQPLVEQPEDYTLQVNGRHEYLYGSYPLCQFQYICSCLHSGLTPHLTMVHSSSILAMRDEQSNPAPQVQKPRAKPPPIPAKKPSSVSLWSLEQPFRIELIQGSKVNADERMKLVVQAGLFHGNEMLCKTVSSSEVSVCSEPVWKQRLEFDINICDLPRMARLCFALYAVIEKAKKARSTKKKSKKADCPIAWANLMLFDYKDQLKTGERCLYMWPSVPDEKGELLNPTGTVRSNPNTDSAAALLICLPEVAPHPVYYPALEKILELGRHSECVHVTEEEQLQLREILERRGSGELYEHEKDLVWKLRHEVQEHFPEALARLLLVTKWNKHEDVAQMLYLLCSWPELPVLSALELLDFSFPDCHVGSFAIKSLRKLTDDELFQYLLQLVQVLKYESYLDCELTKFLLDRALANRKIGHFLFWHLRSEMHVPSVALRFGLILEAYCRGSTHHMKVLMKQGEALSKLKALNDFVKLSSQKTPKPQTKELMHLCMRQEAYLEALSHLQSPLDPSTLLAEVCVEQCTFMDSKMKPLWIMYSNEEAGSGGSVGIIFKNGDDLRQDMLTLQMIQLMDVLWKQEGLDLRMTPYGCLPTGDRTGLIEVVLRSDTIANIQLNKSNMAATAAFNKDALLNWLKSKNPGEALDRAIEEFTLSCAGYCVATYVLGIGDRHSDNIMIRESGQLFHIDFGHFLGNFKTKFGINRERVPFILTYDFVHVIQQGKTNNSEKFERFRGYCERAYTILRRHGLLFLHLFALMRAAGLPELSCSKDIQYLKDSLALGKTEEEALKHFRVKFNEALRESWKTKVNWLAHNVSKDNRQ
Chain of PI3Kδ (P27986 whole entry partner): as the sequence (P27986 whole entry partner) above

| Compound | inhibition at 0.1 µM (PI3Kδ) | inhibition at 0.1 µM (PI3Kγ) | inhibition at 1 µM (PI3Kα) | inhibition at 1 µM (PI3Kβ) | pIC50 (PI3Kδ) | pIC50 (PI3Kγ) |
| --- | --- | --- | --- | --- | --- | --- |
| Cc1n[nH]c2cc(-c3nn([C@@H](C)c4cc5cccc(Cl)c5c(=O)n4-c4ccccc4)c4ncnc(N)c34)ccc12 [Example 21a, (+)-3-(1-(4-amino-3-(3-methyl-1H-indazol-6-yl)-1H-pyrazolo[3,4-d]pyrimidin-1-yl)ethyl)-8-chloro-2-phenylisoquinolin-1(2H)-one] | 80 to 100% | 60 to 80% | 0 to 10% | 0 to 10% | – | – |
| CC(C)Oc1ccc(-c2nn(C(C)c3nc4ccc(F)cc4c(=O)n3-c3ccccc3)c3ncnc(N)c23)cc1F (stereo not drawn) [Example 4, 2-(1-(4-amino-3-(3-fluoro-4-isopropoxyphenyl)-1H-pyrazolo[3,4-d]pyrimidin-1-yl)ethyl)-6-fluoro-3-phenylquinazolin-4(3H)-one] | 0 to 20% | 40 to 60% | 0 to 10% | 20 to 40% | – | – |
| CC(C)Oc1ccc(-c2nn(C(C)c3cc4cccc(F)c4c(=O)n3-c3ccccc3)c3ncnc(N)c23)cc1F (stereo not drawn) [Example 2, 3-(1-(4-amino-3-(3-fluoro-4-isopropoxyphenyl)-1H-pyrazolo[3,4-d]pyrimidin-1-yl)ethyl)-8-fluoro-2-phenylisoquinolin-1(2H)-one] | 0 to 20% | 0 to 20% | 0 to 10% | 10 to 20% | – | – |
| CC(C)Oc1ccc(-c2nn([C@@H](C)c3cc4ccccc4c(=O)n3-c3ccccc3)c3ncnc(N)c23)cc1F [Example 5a, (+)-3-(1-(4-amino-3-(3-fluoro-4-isopropoxyphenyl)-1H-pyrazolo[3,4-d]pyrimidin-1-yl)ethyl)-2-phenylisoquinolin-1(2H)-one] | 80 to 100% | 60 to 80% | 0 to 10% | 20 to 40% | 8.52 | 7.65 |
| C[C@@H](c1cc2ccccc2c(=O)n1-c1ccccc1)n1nc(-c2ccc(O)c(F)c2)c2c(N)ncnc21 [Example 7a, (+)-3-(1-(4-amino-3-(3-fluoro-4-hydroxyphenyl)-1H-pyrazolo[3,4-d]pyrimidin-1-yl)ethyl)-2-phenylisoquinolin-1(2H)-one] | 60 to 80% | 60 to 80% | 0 to 10% | 20 to 40% | 7.88 | 7.24 |
| COc1ccc(-c2nn(C(C)c3nc4ccccc4c(=O)n3-c3ccccc3)c3ncnc(N)c23)cc1NS(C)(=O)=O (stereo not drawn) [Example 12, N-(5-(4-amino-1-(1-(4-oxo-3-phenyl-3,4-dihydroquinazolin-2-yl)ethyl)-1H-pyrazolo[3,4-d]pyrimidin-3-yl)-2-methoxyphenyl)methanesulfonamide] | 0 to 20% | 20 to 40% | 0 to 10% | 20 to 40% | – | – |
| CC(c1cc2ccccc2c(=O)n1-c1ccccc1)n1nc(-c2ccc(O)c(F)c2)c2c(N)ncnc21 (stereo not drawn) [Example 7, 3-(1-(4-amino-3-(3-fluoro-4-hydroxyphenyl)-1H-pyrazolo[3,4-d]pyrimidin-1-yl)ethyl)-2-phenylisoquinolin-1(2H)-one] | 40 to 60% | 20 to 40% | 10 to 20% | 20 to 40% | – | – |
| C[C@@H](c1cc2cccc(F)c2c(=O)n1-c1ccccc1)n1nc(-c2ccc(O)c(F)c2)c2c(N)ncnc21 [Example 15a, (+)-3-(1-(4-amino-3-(3-fluoro-4-hydroxyphenyl)-1H-pyrazolo[3,4-d]pyrimidin-1-yl)ethyl)-8-fluoro-2-phenylisoquinolin-1(2H)-one] | 80 to 100% | 40 to 60% | 0 to 10% | 10 to 20% | 8.00 | 7.28 |
| C[C@@H](c1cc2cccc(Cl)c2c(=O)n1-c1ccccc1)n1nc(-c2ccc(O)c(F)c2)c2c(N)ncnc21 [Example 14a, (+)-3-(1-(4-amino-3-(3-fluoro-4-hydroxyphenyl)-1H-pyrazolo[3,4-d]pyrimidin-1-yl)ethyl)-8-chloro-2-phenylisoquinolin-1(2H)-one] | 80 to 100% | 80 to 100% | 0 to 10% | 10 to 20% | 8.38 | 7.71 |
| CC(c1cc2cccc(Cl)c2c(=O)n1-c1ccccc1)n1nc(-c2ccc(OC(F)F)c(F)c2)c2c(N)ncnc21 (stereo not drawn) [Example 17, 3-(1-(4-amino-3-(4-(difluoromethoxy)-3-fluorophenyl)-1H-pyrazolo[3,4-d]pyrimidin-1-yl)ethyl)-8-chloro-2-phenylisoquinolin-1(2H)-one] | 80 to 100% | 80 to 100% | 20 to 40% | 40 to 60% | – | – |
| COc1ccc(-c2nn([C@@H](C)c3cc4cccc(Cl)c4c(=O)n3-c3ccccc3)c3ncnc(N)c23)cc1NS(C)(=O)=O [Example 20a, (+)—N-(5-(4-amino-1-(1-(8-chloro-1-oxo-2-phenyl-1,2-dihydroisoquinolin-3-yl)ethyl)-1H-pyrazolo[3,4-d]pyrimidin-3-yl)-2-methoxyphenyl)methanesulfonamide] | 60 to 80% | 20 to 40% | 0 to 10% | 10 to 20% | 7.12 | 6.85 |
| C[C@@H](c1nc2cccc(F)c2c(=O)n1-c1ccccc1)n1nc(-c2ccc(O)c(F)c2)c2c(N)ncnc21 [Example 16a, (+)-2-(1-(4-amino-3-(3-fluoro-4-hydroxyphenyl)-1H-pyrazolo[3,4-d]pyrimidin-1-yl)ethyl)-5-fluoro-3-phenylquinazolin-4(3H)-one] | 80 to 100% | 20 to 40% | 0 to 10% | 10 to 20% | 7.48 | 6.92 |
| CC(C)Oc1ccc(-c2nn(C(C)c3cc4ccccc4c(=O)n3-c3ccccc3)c3ncnc(N)c23)cc1F (stereo not drawn) [Example 5, 3-(1-(4-amino-3-(3-fluoro-4-isopropoxyphenyl)-1H-pyrazolo[3,4-d]pyrimidin-1-yl)ethyl)-2-phenylisoquinolin-1(2H)-one] | 80 to 100% | 60 to 80% | 0 to 10% | 10 to 20% | – | – |
| COc1ccc(-c2nn([C@@H](C)c3cc4ccccc4c(=O)n3-c3ccccc3)c3ncnc(N)c23)cc1NS(C)(=O)=O [Example 9a, (+)—N-(5-(4-amino-1-(1-(1-oxo-2-phenyl-1,2-dihydroisoquinolin-3-yl)ethyl)-1H-pyrazolo[3,4-d]pyrimidin-3-yl)-2-methoxyphenyl)methanesulfonamide] | 80 to 100% | 40 to 60% | 0 to 10% | 20 to 40% | 7.79 | 6.69 |
| CC(C)Oc1ccc(-c2nn(C(C)c3nc4ccccc4c(=O)n3-c3ccccc3)c3ncnc(N)c23)cc1F (stereo not drawn) [Example 6, 2-(1-(4-amino-3-(3-fluoro-4-isopropoxyphenyl)-1H-pyrazolo[3,4-d]pyrimidin-1-yl)ethyl)-3-phenylquinazolin-4(3H)-one] | 80 to 100% | 40 to 60% | 0 to 10% | 0 to 10% | – | – |
| CC(C)Oc1ccc(-c2nn(C(C)c3nc4cccc(F)c4c(=O)n3-c3ccccc3)c3ncnc(N)c23)cc1F (stereo not drawn) [Example 3, 2-(1-(4-amino-3-(3-fluoro-4-isopropoxyphenyl)-1H-pyrazolo[3,4-d]pyrimidin-1-yl)ethyl)-5-fluoro-3-phenylquinazolin-4(3H)-one] | 0 to 20% | 0 to 20% | 0 to 10% | 10 to 20% | – | – |
